# Starred links: 1 amine or outer side, 2 acyl side, 3 side chain; linkers in the order of their positions; H or OH if unused. Positions of bridges follow the written chain, without caps; N, C: chain ends. Non-standard residues stand in square brackets, D forms with d. Residues, ends and D or L forms follow the SMILES beside them. X1 = O=C(c1cc(CS[*:2])cc(CS[*:3])c1)[*:1]; 2Nal = N[C@@H](Cc1ccc2ccccc2c1)C(=O)O; Mpa = O=C(O)CCS
# How the values were obtained:
# [1] = In vitro reduction of disulfide bonds by glutathione; assay type: physicochemical; conditions: 5 mM glutathione, 2 h
# [2] = Proteolytic stability in human serum; assay type: in vitro ADME
reduction of the disulfide bonds [1],half-life in human serum [2],half-life ([2]; human serum),SMILES
completely reduced,~ 10 h,–,CC(C)C[C@@H]1NC(=O)[C@H](C)NC(=O)[C@@H]2CSSCc3cc(cc(c3)C(=O)N[C@@H](CCCNC(=N)N)C(=O)N[C@@H](CCCNC(=N)N)C(=O)N[C@@H](CCCNC(=N)N)C(=O)N[C@@H](CCCNC(=N)N)C(=O)N[C@@H](Cc3ccc4ccccc4c3)C(=O)N[C@@H](Cc3ccccc3)C(=O)N2)CSSC[C@@H](C(N)=O)NC(=O)[C@H](CCC(N)=O)NC(=O)[C@H](CC(C)C)NC(=O)[C@H](Cc2c[nH]c3ccccc23)NC(=O)[C@H](CO)NC(=O)[C@H](Cc2c[nH]c3ccccc23)NC(=O)[C@H](CC(=O)O)NC1=O [Peptide 4] (RRRR[2Nal]FCALDWSWLQC-NH2; linker N-7-16 via X1)
–,–,~30 min,CC(C)C[C@H](NC(=O)[C@H](C)NC(=O)[C@@H]1CSSCCC(=O)N[C@@H](CCCNC(=N)N)C(=O)N[C@@H](CCCNC(=N)N)C(=O)N[C@@H](CCCNC(=N)N)C(=O)N[C@@H](CCCNC(=N)N)C(=O)N[C@@H](Cc2ccc3ccccc3c2)C(=O)N[C@@H](Cc2ccccc2)C(=O)N1)C(=O)N[C@@H](CC(=O)O)C(=O)N[C@@H](Cc1c[nH]c2ccccc12)C(=O)N[C@@H](CO)C(=O)N[C@@H](Cc1c[nH]c2ccccc12)C(=O)N[C@@H](CC(C)C)C(=O)N[C@@H](CCC(N)=O)C(=O)N[C@H](C(N)=O)[C@@H](C)O [Peptide 6] ([Mpa]RRRR[2Nal]FCALDWSWLQT-NH2; disulfide 1-8; C-terminus assumed)

# — paper PMC5296932 (Angewandte Chemie (International ed. in English), 2016)
